Test results taken from patent US20250129012A1, “ANTI-INFLAMMATORY AND ANALGESIC COMPOUNDS AND USE THEREOF” (JIANGSU ATOM BIOSCIENCE AND PHARMACEUTICAL CO., LTD., priority 2021, published 2025).
Read-outs that look alike come from different tables or passages of the source. Marks after values point to notes of the source that are not given here.

How the values were obtained:
[1] = tested on: TNF-α; test: Inflammatory factor experiment B: TNF-α in knee synovial tissue (ELISA); assay type: in vivo, SD rats
[2] = tested on: gouty arthritis in rats (urate crystals, left ankle joint); test: Pharmacodynamics experiment A on gouty arthritis in rats: pain score; assay type: in vivo, SD rats; set-up: Pain score: scale not given here; details: 0.6 mg/kg gavage; for Pain score: Mean ± SEM
Method: (§1) Compounds 2, 17, 26 and 27 were prepared by grinding with 0.5% CMC-Na into a suspension of the corresponding concentration (0.06 mg/mL) for gavage before administration, and the volume of administration was 10 mL/kg. […] Before use, 0.5% CMC-Na was used for grinding and prepared into a suspension of the corresponding concentration (0.06 mg/mL) for gavage, and the volume of drug administered was 10 mL/kg.
(§2) Each group of subjects was prepared into a suspension of the corresponding concentration, and the administration volume was 10 mL/kg.
(§3) The crystalline arthritis model was prepared by intra-articular injection of urate crystals (40 mg/mL, in the left ankle joint of each rat). Different doses of the test drug were given separately by gavage administration. The day of administration was defined as day 1 of the experiment, and the drug was administered once a day for 10 consecutive days (pre-administration of the drug for 7 days prior to modeling, modeling on day 8, and continuation of the drug for 3 days). The experiment ended on day 10.
The pain level was scored using the flexion and extension joint pain test scoring method at the same time point.
(§4) The data obtained from the experiment were statistically analyzed using IBM SPSS Statistics 22.0. All measurements were expressed as Mean±S.E.M s. The data were analyzed using SPSS 22.0 statistical software and variance chi-square test was performed on the parameters.

[3] = tested on: gouty arthritis in rats (urate crystals, left ankle joint); test: Pharmacodynamics experiment A on gouty arthritis in rats: paw volume; assay type: in vivo, SD rats; details: for Paw volume: Mean ± SEM
Method: as §1, §2, §3
Paw volume was measured before administration, before urate injection, and 2, 4, 8, 10, 24, and 48 h after injection.
as §4

[4] = death 35 h after ingestion; cited from earlier work
[5] = tested on: gouty arthritis rats (sodium urate, right ankle and knee joint cavities); test: Pharmacodynamics experiment B on gouty arthritis rats: ankle swelling rate; assay type: in vivo, SD rats; details: for change in vivo at 0.6 mg/kg / change in vivo at 1.2 mg/kg: Rattus norvegicus, po, read-out: Swelling rate (ankle)
How it was run: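 Male SD rats dosed by gavage at 0.6 mg/kg (0.5% CMC-Na suspension) daily for 7 days before and 3 days after injection of 0.2 mL sodium urate solution into right ankle and knee joints. Ankle circumference measured before and 2-48 h after modeling; swelling rate = swelling degree/baseline ×100%, mean values.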

[6] = Acute toxicity test in mice by single administration; assay type: in vivo, ICR mice; details: both sexes, ICR, mouse, in vivo, po; acute toxicity, mice, single gavage; read-out: Maximum tolerated dose (MTD)
Method: (§5) Compounds 34, 48, 55 and 58 were ground with 0.5% CMC-Na before administration, and prepared into a suspension of the corresponding concentration for gavage, with an administration volume of 0.1 mL/10 g.
(§6) ICR mice, SPF grade, weighing 18-20 g, 6-8 weeks old, were provided by Nantong University. The Laboratory Animal Production License was SCXK (Su) 2016-0010 and Laboratory Animal Use License was SYXK (Su) 2017-0035.
(§7) After overnight fasting, the drug was administered once by gavage in a volume of 0.1 mL/10 g. The normal group was given the corresponding volume of 0.5% CMC-Na solution according to body weight. The state of the animal was observed after administration, the animals were weighed daily and the number of deaths was recorded for 14 consecutive days.

[7] = tested on: ICR mice; test: as above; assay type: in vivo; details: single gavage dose 50 mg/kg; 14 days; deaths/animals
Method: as §5, §6, §7

[8] = compounds 0.6 mg/kg, colchicine 0.6 and 1.2 mg/kg

Compound: COc1cc2c(c(OC)c1OC)-c1ccc(OC)c(=O)cc1[C@@H](NC(C)=O)CC2 [colchicine, reference compound]
- inhibition in vivo at 0.6 mg/kg ([1]; Rattus norvegicus, po, synovial tissue of knee joints, 48 h after modeling, dose 0.6 mg/kg, read-out: TNF-α percentage decrease %): 58%
- inhibition in vivo at 1.2 mg/kg ([1]; Rattus norvegicus, po, synovial tissue of knee joints, 48 h after modeling, dose 1.2 mg/kg (high dose group), read-out: TNF-α percentage decrease %): 52.5%
- TNF-α level after modeling, in words [1, 8]: could reduce the TNF-αlevel
- Pain versus model group, in words ([2]; time points after modeling, P<0.05 or P<0.01): improved the pain at 2 h, 8 h, 24 h, and 48 h
- Pain score ([2]; 2 h after modeling): 3.30 ± 0.60
- Pain score ([2]; 4 h after modeling): 2.90 ± 0.71
- Pain score ([2]; 8 h after modeling): 3.20 ± 0.61
- Pain score ([2]; 10 h after modeling): 2.60 ± 0.70
- Pain score ([2]; 24 h after modeling): 1.40 ± 0.58
- Pain score ([2]; 48 h after modeling): 0.80 ± 0.44
- Pain score ([2]; before modeling): 0.00 ± 0.00
- Paw volume versus model group, in words ([3]; 0.6 mg/kg gavage, time points after modeling): significantly smaller than those in the model group at 2 h, 4 h, 8 h, 10 h, and 48 h after modeling
- Paw volume ([3]; 2 h after modeling, 0.6 mg/kg gavage): 2.44 ± 0.02*** cm^3
- Paw volume ([3]; 4 h after modeling, 0.6 mg/kg gavage): 2.45 ± 0.03** cm^3
- Paw volume ([3]; 8 h after modeling, 0.6 mg/kg gavage): 2.44 ± 0.04*** cm^3
- Paw volume ([3]; 10 h after modeling, 0.6 mg/kg gavage): 2.46 ± 0.04** cm^3
- Paw volume ([3]; 24 h after modeling, 0.6 mg/kg gavage): 2.46 ± 0.05 cm^3
- Paw volume ([3]; 48 h after modeling, 0.6 mg/kg gavage): 2.24 ± 0.03*** cm^3
- Paw volume ([3]; before modeling, 0.6 mg/kg gavage once a day): 2.18 ± 0.03 cm^3
- Dose with reported death cases [4]: 0.4 mg/kg
- change in vivo at 0.6 mg/kg ([5]; 2 h): 10.5%
- change in vivo at 1.2 mg/kg ([5]; 2 h): 8.97%
- change in vivo at 0.6 mg/kg ([5]; 4 h): 15.7%
- change in vivo at 1.2 mg/kg ([5]; 4 h): 14.9%
- change in vivo at 0.6 mg/kg ([5]; 8 h): 20.6%
- change in vivo at 1.2 mg/kg ([5]; 8 h): 17.2%
- change in vivo at 0.6 mg/kg ([5]; 10 h): 23.4%
- change in vivo at 1.2 mg/kg ([5]; 10 h): 19.4%
- change in vivo at 0.6 mg/kg ([5]; 24 h): 24.4%
- change in vivo at 1.2 mg/kg ([5]; 24 h): 19.8%
- change in vivo at 0.6 mg/kg ([5]; 48 h): 12.1%
- change in vivo at 1.2 mg/kg ([5]; 48 h): 9.29%
- Ankle swelling rate versus model group, in words [5, 8]: significantly (P<0.01) reduced
- MTD at 14 days [6]: < 50 mg/kg
- Mortality rate [7]: 3/6
